In ChEMBL document CHEMBL1201862, “PubChem BioAssay data set” (2004):
Active and inactive are the calls of the source.

Key:
Hexokinase-1 = target: T1, Hexokinase-1 (Homo sapiens, UniProt P19367); assay: SAR analysis of small molecule inhibitors of hexokinase domain containing I (HKDC1) in the hexokinase 1 selectivity assay. [Related pubchem assays (depositor defined):AID493160, AID493190]; assay type: functional
T1 sequence (P19367 whole entry): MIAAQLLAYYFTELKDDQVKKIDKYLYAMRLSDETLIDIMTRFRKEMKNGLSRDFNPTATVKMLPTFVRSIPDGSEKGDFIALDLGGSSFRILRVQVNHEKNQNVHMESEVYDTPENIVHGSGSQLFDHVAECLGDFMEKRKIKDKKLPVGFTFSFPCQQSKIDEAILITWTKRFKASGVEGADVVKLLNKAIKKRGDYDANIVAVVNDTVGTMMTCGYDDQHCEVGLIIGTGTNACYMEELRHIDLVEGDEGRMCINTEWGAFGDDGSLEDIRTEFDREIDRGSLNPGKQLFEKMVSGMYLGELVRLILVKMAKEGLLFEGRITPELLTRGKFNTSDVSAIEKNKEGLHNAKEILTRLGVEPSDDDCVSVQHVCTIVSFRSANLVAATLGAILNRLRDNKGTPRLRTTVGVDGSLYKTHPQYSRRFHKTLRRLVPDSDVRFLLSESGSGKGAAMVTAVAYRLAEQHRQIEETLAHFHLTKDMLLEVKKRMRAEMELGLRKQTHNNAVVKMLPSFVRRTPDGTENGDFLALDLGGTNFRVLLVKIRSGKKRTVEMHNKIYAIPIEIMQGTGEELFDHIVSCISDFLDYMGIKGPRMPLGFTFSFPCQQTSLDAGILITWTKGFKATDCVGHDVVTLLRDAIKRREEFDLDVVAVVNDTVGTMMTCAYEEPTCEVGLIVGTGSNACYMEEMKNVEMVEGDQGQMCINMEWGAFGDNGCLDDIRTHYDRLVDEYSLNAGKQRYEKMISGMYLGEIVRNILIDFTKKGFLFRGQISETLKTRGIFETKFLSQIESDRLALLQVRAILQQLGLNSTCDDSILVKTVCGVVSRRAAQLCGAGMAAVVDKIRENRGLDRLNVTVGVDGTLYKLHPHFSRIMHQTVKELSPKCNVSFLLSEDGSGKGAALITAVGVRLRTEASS

Hexokinase HKDC1 = target: T2, Hexokinase HKDC1 (Homo sapiens, UniProt Q2TB90); assay: SAR analysis of small molecule inhibitors of hexokinase domain containing I (HKDC1). [Related pubchem assays (depositor defined):AID493160, AID493190]; assay type: functional
T2 sequence (Q2TB90 whole entry): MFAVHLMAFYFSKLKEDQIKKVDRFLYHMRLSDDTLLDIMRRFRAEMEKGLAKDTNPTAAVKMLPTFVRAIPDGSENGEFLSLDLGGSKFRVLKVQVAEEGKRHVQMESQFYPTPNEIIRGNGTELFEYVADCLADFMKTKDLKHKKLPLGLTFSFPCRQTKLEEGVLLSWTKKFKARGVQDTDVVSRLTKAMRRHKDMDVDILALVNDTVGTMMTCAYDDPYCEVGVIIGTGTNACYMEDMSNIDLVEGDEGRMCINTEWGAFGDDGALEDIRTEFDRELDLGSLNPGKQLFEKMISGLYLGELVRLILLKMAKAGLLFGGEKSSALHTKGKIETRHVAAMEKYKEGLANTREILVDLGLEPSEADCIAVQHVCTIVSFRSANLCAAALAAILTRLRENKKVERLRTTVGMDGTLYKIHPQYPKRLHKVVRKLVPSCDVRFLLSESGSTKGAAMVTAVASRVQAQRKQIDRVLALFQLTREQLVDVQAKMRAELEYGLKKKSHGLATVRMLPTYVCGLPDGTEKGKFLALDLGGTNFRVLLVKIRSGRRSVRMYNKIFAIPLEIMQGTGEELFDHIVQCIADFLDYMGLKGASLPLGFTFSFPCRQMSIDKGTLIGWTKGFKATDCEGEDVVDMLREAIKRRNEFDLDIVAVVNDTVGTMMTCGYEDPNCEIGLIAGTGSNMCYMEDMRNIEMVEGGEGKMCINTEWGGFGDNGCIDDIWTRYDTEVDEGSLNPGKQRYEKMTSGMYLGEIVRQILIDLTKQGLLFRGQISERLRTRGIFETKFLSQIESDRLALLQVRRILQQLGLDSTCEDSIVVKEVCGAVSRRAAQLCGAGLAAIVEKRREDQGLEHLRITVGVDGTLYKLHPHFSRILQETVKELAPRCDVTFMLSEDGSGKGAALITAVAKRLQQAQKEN

HEK293 [1] = assay: membrane integrity loss in HEK cells – cell-based, fluorescence, cytotoxicity control for IDE activator project, dose response (AID 588440); assay type: functional; details: Homo sapiens;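 note: cytotoxicity by LDH release measuring loss of membrane integrity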
Insulin-degrading enzyme [2] = target: T3, Insulin-degrading enzyme (Homo sapiens, UniProt P14735); assay: cellular IDE activation of Abeta substrate cleavage – fluorescence polarization, HEK cells, dose response (AID 588439); assay type: functional, cell-based
T3 sequence (P14735 whole entry): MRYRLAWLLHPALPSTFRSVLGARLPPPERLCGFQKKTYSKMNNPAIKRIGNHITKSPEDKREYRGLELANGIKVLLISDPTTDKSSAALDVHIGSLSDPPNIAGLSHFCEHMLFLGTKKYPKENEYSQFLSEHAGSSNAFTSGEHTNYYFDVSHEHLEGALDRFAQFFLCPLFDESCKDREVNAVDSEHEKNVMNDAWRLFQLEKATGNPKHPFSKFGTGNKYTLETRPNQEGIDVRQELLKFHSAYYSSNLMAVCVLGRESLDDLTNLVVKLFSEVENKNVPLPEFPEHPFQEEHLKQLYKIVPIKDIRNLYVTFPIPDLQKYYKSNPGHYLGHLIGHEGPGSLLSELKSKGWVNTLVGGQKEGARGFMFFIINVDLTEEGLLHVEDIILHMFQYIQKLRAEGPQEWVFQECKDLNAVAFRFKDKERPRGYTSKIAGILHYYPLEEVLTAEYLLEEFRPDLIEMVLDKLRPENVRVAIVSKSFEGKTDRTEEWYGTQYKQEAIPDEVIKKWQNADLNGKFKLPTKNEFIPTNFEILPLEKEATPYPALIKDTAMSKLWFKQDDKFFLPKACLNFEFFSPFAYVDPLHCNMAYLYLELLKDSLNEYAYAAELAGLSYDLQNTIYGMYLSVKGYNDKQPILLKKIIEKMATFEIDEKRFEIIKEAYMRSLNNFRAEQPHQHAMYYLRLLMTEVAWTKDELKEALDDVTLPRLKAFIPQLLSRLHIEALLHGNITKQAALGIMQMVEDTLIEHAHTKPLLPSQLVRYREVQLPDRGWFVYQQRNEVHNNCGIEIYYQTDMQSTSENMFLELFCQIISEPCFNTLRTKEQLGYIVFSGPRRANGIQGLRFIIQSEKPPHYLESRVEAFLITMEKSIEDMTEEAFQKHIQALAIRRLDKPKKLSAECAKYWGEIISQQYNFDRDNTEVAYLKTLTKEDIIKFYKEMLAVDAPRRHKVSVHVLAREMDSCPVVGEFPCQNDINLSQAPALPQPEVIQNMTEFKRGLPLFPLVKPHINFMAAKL

HEK293 [3] = assay: optical interference in Abeta FP readout, dose response, artefact control for IDE activator project, biochemical, fluorescence polarization (AID 588442); assay type: functional, cell-based; details: Homo sapiens
Insulin-degrading enzyme [4] = target: T3, Insulin-degrading enzyme; assay: recombinant IDE activation, cell-free – biochemical, fluorescence polarization, counter-screen for IDE activator project, dose response (AID 588681)
[5] = fluconazole-exposed Candida albicans growth modulators – fluorescence, retest, confirmation (AID 2467); assay type: functional, cell-based
[6] = NIH-3T3 fibroblast cytotoxicity, dose response, cytotoxicity control, cell-based, fluorescence, Alamar Blue, secondary assay (AID 2327); assay type: functional;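 note: NIH-3T3 mouse fibroblasts cultured with fluconazole at 8 µg/mL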
[7] = target: Serine/threonine-protein phosphatase (Candida dubliniensis (strain CD36 / CBS 7987 / NCPF 3949 / NRRLY-17841) (Yeast), UniProt B9W6M3); assay: blockers of CaCl2-induced CDRE-lacZ signaling – S. cerevisiae, luminescence, secondary, dose response (AID 2388); assay type: functional, cell-based;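 note: yeast reporter cells carrying a calcineurin-responsive lacZ construct stimulated with calcium chloride; luminescent beta-galactosidase reporter signal in whole cells rather than isolated phosphatase activity; potency for inhibition where a drop in reporter signal means calcineurin blockade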
[8] = target: ATP-dependent molecular chaperone HSP82 (Candida albicans (strain WO-1) (Yeast), UniProt C4YTQ8); assay: steroid-induced GRE reporter decrease in yeast – S. cerevisiae, luminescence, Hsp90 inhibitor project, dose response (AID 2400); assay type: functional, cell-based;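 note: beta-galactosidase luminescence from glucocorticoid response element reporter as proxy for Hsp90 function; inhibitor potency where signal loss means Hsp90 inhibition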
Chain of ATP-dependent molecular chaperone HSP82 (C4YTQ8 whole entry): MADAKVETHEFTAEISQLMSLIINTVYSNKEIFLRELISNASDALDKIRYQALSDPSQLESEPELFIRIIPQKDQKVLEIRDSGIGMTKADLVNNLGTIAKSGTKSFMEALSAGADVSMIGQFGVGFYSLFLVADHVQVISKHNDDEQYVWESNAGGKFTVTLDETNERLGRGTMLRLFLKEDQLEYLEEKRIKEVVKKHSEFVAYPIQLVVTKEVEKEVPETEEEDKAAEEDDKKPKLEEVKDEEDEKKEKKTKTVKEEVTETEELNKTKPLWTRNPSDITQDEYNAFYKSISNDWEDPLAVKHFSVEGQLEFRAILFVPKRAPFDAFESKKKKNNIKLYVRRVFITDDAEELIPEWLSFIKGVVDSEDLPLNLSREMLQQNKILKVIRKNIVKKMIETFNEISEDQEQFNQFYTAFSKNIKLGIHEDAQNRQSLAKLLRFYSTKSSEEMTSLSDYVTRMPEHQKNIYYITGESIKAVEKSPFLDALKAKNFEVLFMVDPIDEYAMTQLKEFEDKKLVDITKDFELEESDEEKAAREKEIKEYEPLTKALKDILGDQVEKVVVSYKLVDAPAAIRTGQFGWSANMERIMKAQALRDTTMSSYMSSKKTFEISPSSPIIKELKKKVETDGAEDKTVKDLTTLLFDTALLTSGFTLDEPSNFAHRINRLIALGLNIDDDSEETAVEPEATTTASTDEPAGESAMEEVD

Chain of Serine/threonine-protein phosphatase (B9W6M3 whole entry): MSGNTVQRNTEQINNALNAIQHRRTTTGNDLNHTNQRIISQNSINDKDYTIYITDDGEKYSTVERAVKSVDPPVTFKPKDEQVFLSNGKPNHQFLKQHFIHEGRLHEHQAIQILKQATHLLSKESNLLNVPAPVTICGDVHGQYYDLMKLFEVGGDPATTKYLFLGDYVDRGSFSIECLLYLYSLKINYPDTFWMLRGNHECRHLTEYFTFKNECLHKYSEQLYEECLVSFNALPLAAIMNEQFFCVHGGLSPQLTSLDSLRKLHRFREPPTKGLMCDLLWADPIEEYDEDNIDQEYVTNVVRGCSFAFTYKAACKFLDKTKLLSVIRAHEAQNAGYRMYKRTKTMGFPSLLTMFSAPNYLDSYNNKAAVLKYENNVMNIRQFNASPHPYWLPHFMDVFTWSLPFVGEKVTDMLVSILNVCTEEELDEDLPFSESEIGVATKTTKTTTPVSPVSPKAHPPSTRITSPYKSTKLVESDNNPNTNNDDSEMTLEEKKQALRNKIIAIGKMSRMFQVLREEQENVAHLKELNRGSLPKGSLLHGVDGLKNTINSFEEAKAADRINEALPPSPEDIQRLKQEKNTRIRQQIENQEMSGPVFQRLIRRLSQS

Structure (SMILES): O=c1c2ccccc2nc(/C=C/c2cccnc2)n1Cc1ccc(F)cc1
- IC50 (Hexokinase-1): > 80 µM (inactive)
- IC50 (Hexokinase HKDC1): > 80 µM (inactive)

Structure (SMILES): Cc1cc(C)c(S(=O)(=O)Nc2cc(SCCC(=O)O)c(O)c3ccccc23)cc1C
- IC50 (Hexokinase-1): > 80 µM (inactive)
- IC50 (Hexokinase HKDC1): 9.9 µM (active)

Structure (SMILES): NC(=O)Cn1cc(/C=N\NS(=O)(=O)c2ccc(Cl)cc2)c2ccccc21
- IC50 (HEK293 [1]): > 89.1 µM (inactive)
- EC50 (Insulin-degrading enzyme [2]): > 54.7 µM (inactive)
- EC50 (HEK293 [3]): > 55.9 µM (inactive)
- EC50 (Insulin-degrading enzyme [4]): > 54.7 µM (inactive)

Structure (SMILES): N#Cc1cc(C#N)c(N2CCN(c3cccc(Cl)n3)CC2)nc1N
- EC50 [5]: 1.47 µM (active)
- EC50 [6]: > 150 µM (inactive)
- EC50 [7]: > 180 µM (inactive)
- EC50 [8]: 23.7 µM (active)
